Measured values: US12319692B2, “Anti-influenza virus pyrimidine derivatives” (GUANGDONG RAYNOVENT BIOTECH CO., LTD., priority 2016, dated 2025)

Key:
[1] = system: Influenza virus A/Weiss/43 (H1N1); assay: Influenza virus cytopathic effect (CPE) experiment in MDCK cells; assay type: cell-based; conditions: 120 h, 5 days, CCK8 cell viability
[2] = system: influenza A virus H1N1 (H1N1 A/WSN/33); assay: In vivo pharmacodynamics in mouse infection model of influenza A virus H1N1; conditions: female BALB/c mice, H1N1 A/WSN/33, 10 mg/kg oral twice a day, day 1 to day 7, first dose 36 hours after infection

Compound | EC50 [1] [nM] | Survival Rate (percentages) [2] [%] | Weight Losing Rate (day 9) [2] [%]
O=C(O)[C@H]1C2CCC(CC2)[C@@H]1Nc1nc(-c2c[nH]c3ncc(F)cc23)nc(-c2ccncc2)c1F [WX-230] | 0.1 |  | 
O=C(O)[C@H]1C2CCC(CC2)[C@@H]1Nc1nc(-c2c[nH]c3ncc(F)cc23)nc(-n2ccnc2)c1F [WX-186] | 0.1 |  | 
O=C(O)[C@H]1C2CCC(CC2)[C@@H]1Nc1nc(-c2c[nH]c3ncc(F)cc23)nc(-c2ccc(CN3CCOCC3)s2)c1F [WX-290] | 0.041 | 40 | 27.6
CC(C)Sc1nc(-c2c[nH]c3ncc(F)cc23)nc(N[C@H]2C3CCC(CC3)[C@@H]2C(=O)O)c1F [WX-261] | 0.018 |  | 
CC(C)(C(N)=O)n1cc(-c2nc(-c3c[nH]c4ncc(F)cc34)nc(N[C@H]3C4CCC(CC4)[C@@H]3C(=O)O)c2F)cn1 [WX-286] | 3.7 |  | 
N#CC1(c2nc(-c3n[nH]c4ncc(F)cc34)nc(N[C@H]3C4CCC(CC4)[C@@H]3C(=O)O)c2F)CC1 [WX-358] | 0.6 |  | 
N#CCn1cc(-c2nc(-c3c[nH]c4ncc(F)cc34)nc(N[C@H]3C4CCC(CC4)[C@@H]3C(=O)O)c2F)cn1 [WX-296] | 1 |  | 
O=C(O)[C@H]1C2CCC(CC2)[C@@H]1Nc1nc(-c2c[nH]c3ncc(F)cc23)nc(-c2cccs2)c1F [WX-236] | 0.01 |  | 
CN1CCN(Cc2ccc(-c3nc(-c4c[nH]c5ncc(F)cc45)nc(N[C@H]4C5CCC(CC5)[C@@H]4C(=O)O)c3F)s2)CC1 [WX-289] | 0.1 |  | 
O=C(O)[C@H]1C2CCC(CC2)[C@@H]1Nc1nc(-c2c[nH]c3ncc(F)cc23)nc(-c2cc[nH]n2)c1F [WX-260] | 1.1 |  | 
CCSc1nc(-c2c[nH]c3ncc(F)cc23)nc(N[C@H]2C3CCC(CC3)[C@@H]2C(=O)O)c1F [WX-156] | 0.01 |  | 
O=C(O)[C@H]1C2CCC(CC2)[C@@H]1Nc1nc(-c2n[nH]c3ncc(F)cc23)nc(C2CC2)c1F [WX-216] | 0.013 | 100 | 4.8
O=C(O)[C@H]1C2CCC(CC2)[C@@H]1Nc1nc(-c2n[nH]c3ncc(F)cc23)nc(-c2cn[nH]c2)c1F [WX-265] | 2.8 |  | 
CC(C)(C(=O)O)n1cc(-c2nc(-c3c[nH]c4ncc(F)cc34)nc(N[C@H]3C4CCC(CC4)[C@@H]3C(=O)O)c2F)cn1 [WX-284] | 10 |  | 
O=C(O)[C@H]1C2CCC(CC2)[C@@H]1Nc1nc(-c2c[nH]c3ncc(F)cc23)nc(-c2ccsc2)c1F [WX-240] | 0.03 |  | 
CSc1nc(-c2c[nH]c3c(F)cc(F)cc23)nc(N[C@H]2C3CCC(CC3)[C@@H]2C(=O)O)c1F [WX-160] | 0.5 |  | 
O=C(O)[C@H]1C2CCC(CC2)[C@@H]1Nc1nc(-c2c[nH]c3ncc(F)cc23)nc(-c2ccn(C(F)F)n2)c1F [WX-352] | 0.046 |  | 
CC(C)(C)Sc1nc(-c2c[nH]c3ncc(F)cc23)nc(N[C@H]2C3CCC(CC3)[C@@H]2C(=O)O)c1F [WX-241] | 0.01 |  | 
O=C(O)[C@H]1C2CCC(CC2)[C@@H]1Nc1nc(-c2n[nH]c3ncc(F)cc23)nc(C2(F)CC2)c1F [WX-355] | 0.04 |  | 
CN1CC(n2cc(-c3nc(-c4c[nH]c5ncc(F)cc45)nc(N[C@H]4C5CCC(CC5)[C@@H]4C(=O)O)c3F)cn2)C1 [WX-293] | 8 |  | 
O=C(O)[C@H]1C2CCC(CC2)[C@@H]1Nc1nc(-c2n[nH]c3ncc(F)cc23)nc(-c2cccs2)c1F [WX-271] | 0.057 |  | 
Cn1cc(-c2nc(-c3n[nH]c4ncc(C(F)(F)F)cc34)nc(N[C@H]3C4CCC(CC4)[C@@H]3C(=O)O)c2F)cn1 [WX-280] | 0.055 |  | 
Cn1cc(-c2nc(-c3n[nH]c4ncc(F)cc34)nc(N[C@H]3C4CCC(CC4)[C@@H]3C(=O)O)c2F)cn1 [WX-264] | 0.1 |  | 
CSc1nc(-c2nc(-c3c[nH]c4ncc(F)cc34)nc(N[C@H]3C4CCC(CC4)[C@@H]3C(=O)O)c2F)c[nH]1 [WX-276] | 3.6 |  | 
O=C(O)[C@H]1C2CCC(CC2)[C@@H]1Nc1nc(-c2c[nH]c3ncc(F)cc23)nc(SCC(F)(F)F)c1F [WX-234] | 0.1 |  | 

Compound | EC50 [1] [nM] | Survival Rate (percentages) [2] [%] | Weight Losing Rate (day 9) [2] [%]
CN(C)Cc1ccc(-c2nc(-c3c[nH]c4ncc(F)cc34)nc(N[C@H]3C4CCC(CC4)[C@@H]3C(=O)O)c2F)s1 [WX-279] | 0.025 | 100 | 28.7
O=C(O)[C@H]1C2CCC(CC2)[C@@H]1Nc1nc(-c2n[nH]c3ncc(F)cc23)nc(-c2ccsc2)c1F [WX-269] | 0.019 |  | 
O=C(O)[C@H]1C2CCC(CC2)[C@@H]1Nc1nc(-c2c[nH]c3ncc(F)cc23)nc(-c2ccc(Cl)s2)c1F [WX-298] | 6.7 |  | 
Cc1ccc(-c2nc(-c3c[nH]c4ncc(F)cc34)nc(N[C@H]3C4CCC(CC4)[C@@H]3C(=O)O)c2F)s1 [WX-247] | 56.6 |  | 
CN1CCN(C(=O)c2ccc(-c3nc(-c4c[nH]c5ncc(F)cc45)nc(N[C@H]4C5CCC(CC5)[C@@H]4C(=O)O)c3F)s2)CC1 [WX-288] | 2.3 |  | 
COCCn1cc(-c2nc(-c3c[nH]c4ncc(F)cc34)nc(N[C@H]3C4CCC(CC4)[C@@H]3C(=O)O)c2F)cn1 [WX-283] | 0.4 |  | 
O=C(O)[C@H]1C2CCC(CC2)[C@@H]1Nc1nc(-c2n[nH]c3ncc(F)cc23)nc(C2CC2(F)F)c1F (stereo partly drawn) [WX-297] | 0.024 | 100 | 27.3
CC(C)(C)C#Cc1nc(-c2c[nH]c3ncc(F)cc23)nc(N[C@H]2C3CCC(CC3)[C@@H]2C(=O)O)c1F [WX-275] | 0.009 |  | 
CC(C)(C)Sc1nc(-c2n[nH]c3ncc(F)cc23)nc(N[C@H]2C3CCC(CC3)[C@@H]2C(=O)O)c1F [WX-274] | 0.1 |  | 
CC(C)C#Cc1nc(-c2c[nH]c3ncc(F)cc23)nc(N[C@H]2C3CCC(CC3)[C@@H]2C(=O)O)c1F [WX-249] | 0.009 |  | 
O=C(O)[C@H]1C2CCC(CC2)[C@@H]1Nc1nc(-c2c[nH]c3ncc(F)cc23)nc(-c2cnn(CCO)c2)c1F [WX-263] | 1.5 |  | 
Cc1csc(-c2nc(-c3c[nH]c4ncc(F)cc34)nc(N[C@H]3C4CCC(CC4)[C@@H]3C(=O)O)c2F)c1 [WX-285] | 32 |  | 
N#C[C@@H]1C[C@H]1c1nc(-c2n[nH]c3ncc(F)cc23)nc(N[C@H]2C3CCC(CC3)[C@@H]2C(=O)O)c1F [WX-360] | 0.2 |  | 
O=C(O)[C@H]1C2CCC(CC2)[C@@H]1Nc1nc(-c2n[nH]c3ncc(F)cc23)nc(C2CC2F)c1F (stereo partly drawn) [WX-353] | 0.039 |  | 
CSc1nc(-c2c[nH]c3ncc(F)cc23)nc(N[C@H]2C3CCC(CC3)[C@@H]2C(=O)O)c1F [WX-139] | 0.02 |  | 
O=C(O)c1ccc(-c2nc(-c3c[nH]c4ncc(F)cc34)nc(N[C@H]3C4CCC(CC4)[C@@H]3C(=O)O)c2F)s1 [WX-278] | 2.7 |  | 
CN(C)Cc1cc(-c2nc(-c3c[nH]c4ncc(F)cc34)nc(N[C@H]3C4CCC(CC4)[C@@H]3C(=O)O)c2F)cs1 [WX-295] | 0.013 |  | 
N#C[C@H]1C[C@@H]1c1nc(-c2n[nH]c3ncc(F)cc23)nc(N[C@H]2C3CCC(CC3)[C@@H]2C(=O)O)c1F [WX-359] | 0.09 |  | 
CCn1cc(-c2nc(-c3c[nH]c4ncc(F)cc34)nc(N[C@H]3C4CCC(CC4)[C@@H]3C(=O)O)c2F)cn1 [WX-294] | 0.1 |  | 
O=C(O)[C@H]1C2CCC(CC2)[C@@H]1Nc1nc(-c2c[nH]c3ncc(F)cc23)nc(-c2cnn(C3CC3)c2)c1F [WX-281] | 0.026 |  | 
NC1(c2nc(-c3n[nH]c4ncc(F)cc34)nc(N[C@H]3C4CCC(CC4)[C@@H]3C(=O)O)c2F)CC1 [WX-354] | 4.4 |  | 
Cc1noc(C)c1-c1nc(-c2c[nH]c3ncc(F)cc23)nc(N[C@H]2C3CCC(CC3)[C@@H]2C(=O)O)c1F [WX-245] | 4 |  | 
Cn1cc(-c2nc(-c3c[nH]c4ncc(F)cc34)nc(N[C@H]3C4CCC(CC4)[C@@H]3C(=O)O)c2F)cn1 [WX-231] | 0.2 | 100 | 12.9
CC1(c2nc(-c3n[nH]c4ncc(F)cc34)nc(N[C@H]3C4CCC(CC4)[C@@H]3C(=O)O)c2F)CC1 [WX-351] | 0.2 |  | 35.3
